Assay results: patent EP4458352A1, “EICOSAPENTAENOIC ACID ESTER DERIVATIVES FOR THE TREATMENT OF OBESITY” (Technische Universität Dresden, priority 2023, dated 2024)

How the values were obtained:
[1] = test system: primary adrenal cell cultures; assay: Steroid hormone production (LC-MS/MS) in primary adrenal cell cultures treated with SC-26196, with or without ACTH or ARA; assay type: cell-based, WT C57BL/6J mice
Experimental: Adrenal glands or adrenal corteces were isolated from WT C57BL/6J mice, cleaned from the surrounding fat tissue and incubated in collagenase buffer (1.6 mg/ml collagenase type I, 1.6 mg/ml BSA) for 45 min at 37 °C, while shaking at 900 rpm. Dissociated cells were passed through 22 G needle and a 100 µm cell strainer and centrifuged at 300 × g for 5 min at 4 °C. Cells of a pool from two adrenals of each mouse were distributed in four 0.2 % gelatin-precoated wells of a 96-well plate in DMEM/F12 supplemented with 1 % FBS, 50 U/mL penicillin and 50 µg/mL streptomycin. Two hours after seeding 10 µM SC-26196 (Tocris, Wiesbaden-Nordenstadt, Germany) or same amount of carrier (DMSO) were added without changing the medium. In some experiments medium was additionally supplemented with 150 µM ARA (Sigma Aldrich, Germany) or same amount of solvent (endotoxin-free water). When induction of steroidogenesis was required, the medium was changed 18 h after treatment and the cells were incubated with or without 10 ng/mL ACTH for 60 min in the presence of either 10 µM SC-26196 or DMSO. Supernatants were kept for steroid hormone measurement and cell lysates were collected for transcriptional analysis. In some experiments, primary CD31-CD45- adrenocortical cells were treated or not for 18 h with 66 µM EPA (Sigma-Aldrich). Steroid hormones in plasma and cell culture supernatants were analyzed by LC-MS/MS as previously described (71). Fifty to hundred µL plasma or cell culture supernatants were extracted by solid phase extraction using positive pressure, followed by a dry-down under gentle stream of nitrogen. Residues were reconstituted in 100 µL of the initial LC mobile phase and 10 µL were injected for detection by the triple quadrupole mass spectrometer in multiple reaction-monitoring scan mode using positive electrospray ionization. Quantification of steroid concentrations was done by comparisons of ratios of analyte peak areas to respective peak areas of stable isotope labeled internal standards obtained in samples to those of calibrators.

[2] = test system: adrenal cortex; assay: RNA-Seq and GSEA of the adrenal cortex of HFD mice with or without icosapent ethyl; assay type: in vivo, WT C57BL/6J mice; conditions: HFD with icosapent ethyl versus HFD without; n=4 mice per group
Experimental: Six weeks-old male WT C57BL/6J mice were fed for 20 weeks a LFD (D12450B, Research Diets, NJ, USA) or a HFD (D12492, Research Diets, NJ, USA). In some experiments, WT C57BL/6J mice were fed for 8 weeks a HFD and for another 8 weeks a HFD supplemented with SC-26196 (Biorbyt Ltd). SC-26196 was mixed in the HFD at a concentration of 625 mg/kg of diet corresponding to approx. 100 mg/kg of animal weight. In other experiments WT mice were fed for 10 weeks a HFD and for another 10 weeks a HFD supplemented with icosapent ethyl (Vascepa). […]
For transcriptome mapping, strand-specific paired-end sequencing libraries from total RNA were constructed using TruSeq stranded Total RNA kit (Illumina Inc). […] Low quality nucleotides were removed with the Illumina fastq filter and reads were further subjected to adaptor trimming using cutadapt (85). Alignment of the reads to the Mouse genome was done using STAR Aligner (86) using the parameters: "-runMode alignReads -outSAMstrandField intronMotif-outSAMtype BAM SortedByCoordinate-readFilesCommand zcat". […] The parameters: `htseq-count -f bam -s reverse -m union -a 20', HTSeq-0.6.1p1 (87) were used to count the reads that map to the genes in the aligned sample files. The GTF file (gencode.vM12.annotation.gtf) used for read quantification was downloaded from Gencode (https://www.gencodegenes.org/mouse/release_M12.html). […]

[3] = ARA 150 µM with SC-26196 10 µM, 18 h, n=6-8

| Compound | 11-deoxycorticosterone production in cells treated with SC-26196 [1, 3] | corticosterone production in cells treated with SC-26196 [1, 3] | progesterone production in cells treated with SC-26196 [1, 3] | steroidogenesis in adrenocortical cells ([1]; ARA supplementation (150 µM)) | genes being down-regulated in the adrenal cortex (RNA-Seq) [2] | genes being up-regulated in the adrenal cortex (RNA-Seq) [2] |
| --- | --- | --- | --- | --- | --- | --- |
| CCCCC/C=C\C/C=C\C/C=C\C/C=C\CCCC(=O)O [ARA, all-cis-5,8,11,14-eicosatetraenoic acid] | partially restored | partially restored | partially restored | increased steroidogenesis | – | – |
| CC/C=C\C/C=C\C/C=C\C/C=C\C/C=C\CCCC(=O)OCC [icosapent ethyl, eicosapentaenoic acid ethyl ester] | – | – | – | – | 162 | 266 |
